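How tested: cells in 96-well plates exposed to compound for 48 hours at five concentrations. GI50 marks 50% less growth.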 Calls of active or inactive are those of the source. No stated cut-off is given here; in the data, active = GI50 up to about 1.1 µM and inactive = higher.
Tests used:
Experiment in all cases: inhibition of tumour cell growth, NCI panel, 48 h
HCT-15 = system: HCT-15
M14 = system: M14
MCF7 = system: MCF7
BT-549 = system: BT-549
HT-29 = system: HT-29
NCI-H522 = system: NCI-H522
NCI-H23 = system: NCI-H23
MDA-N = system: MDA-N
NCI-H460 = system: NCI-H460
PC-3 = system: PC-3
MDA-MB-435 = system: MDA-MB-435
EKVX = system: EKVX
OVCAR-4 = system: OVCAR-4
SK-MEL-28 = system: SK-MEL-28
NCI-H226 = system: NCI-H226
Malme-3M = system: Malme-3M
RXF 393 = system: RXF 393
RPMI-8226 = system: RPMI-8226
NCI/ADR-RES = system: NCI/ADR-RES

Row | Compound | GI50 (HCT-15) [µM] | GI50 (M14) | GI50 (MCF7) | GI50 (BT-549) | GI50 (HT-29) | GI50 (NCI-H522) | GI50 (NCI-H23) | GI50 (MDA-N) | GI50 (NCI-H460) | GI50 (PC-3) | GI50 (MDA-MB-435) | GI50 (EKVX) | GI50 (OVCAR-4) | GI50 (SK-MEL-28) | GI50 (NCI-H226) | GI50 (Malme-3M) | GI50 (RXF 393) | GI50 (RPMI-8226) | GI50 (NCI/ADR-RES)
1 | CC1=CCC(C(C)(C)NC(=O)c2ccccc2)C/C1=N/O (centres undefined) | > 100 | > 100 µM (inactive) | > 100 µM (inactive) | > 100 µM (inactive) | > 100 µM (inactive) | > 100 µM (inactive) | > 100 µM (inactive) | > 100 µM (inactive) | > 100 µM (inactive) | > 100 µM (inactive) | > 100 µM (inactive) | > 100 µM (inactive) | > 100 µM (inactive) | > 100 µM (inactive) |  |  |  |  | 
2 | COc1ccc(-c2nc(N)nc(-c3cc(C)ccc3O)c2Cl)cc1 | > 100 | 84.1 µM (inactive) |  |  | > 100 µM (inactive) | 26.2 µM (inactive) | 50.6 µM (inactive) |  | 38.3 µM (inactive) |  |  | 20.3 µM (inactive) | 11.3 µM (inactive) | 47.6 µM (inactive) | > 100 µM (inactive) | 31.8 µM (inactive) | 37.2 µM (inactive) | > 100 µM (inactive) | 
3 | CCOC(=O)CC1(C(=O)OCC)c2[nH]c3ccccc3c2CCN1Cc1ccccc1 (centres undefined) | 29.2 | 18.6 µM (inactive) |  |  | 14.4 µM (inactive) | 13.2 µM (inactive) | 15.9 µM (inactive) |  | 19 µM (inactive) |  |  | 21.8 µM (inactive) | 19.2 µM (inactive) | 20.4 µM (inactive) | 19.1 µM (inactive) | 17.8 µM (inactive) | 17.7 µM (inactive) |  | 
4 | O=S1(=O)OCCOS(=O)(=O)C1(Cl)Cl |  | > 100 µM (inactive) |  |  | > 100 µM (inactive) | > 100 µM (inactive) | > 100 µM (inactive) |  |  |  |  | > 100 µM (inactive) | > 100 µM (inactive) | > 100 µM (inactive) | 41.1 µM (inactive) | > 100 µM (inactive) |  | > 100 µM (inactive) | 
5 | CCCCCCC(/C=N/O)C(C)(O)CCC (centres undefined) | > 100 | > 100 µM (inactive) |  |  | > 100 µM (inactive) | 37.7 µM (inactive) | > 100 µM (inactive) |  | > 100 µM (inactive) |  |  | > 100 µM (inactive) | > 100 µM (inactive) | > 100 µM (inactive) | > 100 µM (inactive) | > 100 µM (inactive) | > 100 µM (inactive) | 54 µM (inactive) | 
6 | CN(C)[C@@H]1C(O)=C(C(=O)NCNCCCC(=O)O)C(=O)[C@@]2(O)C(O)=C3C(=O)c4c(O)cccc4[C@@](C)(O)[C@H]3C[C@@H]12 | > 100 | > 100 µM (inactive) |  |  | > 100 µM (inactive) | > 100 µM (inactive) | > 100 µM (inactive) |  | > 100 µM (inactive) |  |  | > 100 µM (inactive) | > 100 µM (inactive) | > 100 µM (inactive) | > 100 µM (inactive) |  | > 100 µM (inactive) | > 100 µM (inactive) | 
7 | O=C1OC(c2cccc(C(F)(F)F)c2)c2ccc3ccccc3c21 (centres undefined) | 8.22 | > 10 µM (inactive) |  |  | > 10 µM (inactive) | > 10 µM (inactive) | 4.95 µM (inactive) |  | > 10 µM (inactive) |  |  | > 10 µM (inactive) | > 10 µM (inactive) | > 10 µM (inactive) | > 10 µM (inactive) | > 10 µM (inactive) | 13.5 µM (inactive) |  | 
8 | CCC(C)(O)c1cn(-c2cccc(S(=O)(=O)O)c2)nn1 (centres undefined) | > 100 | > 100 µM (inactive) |  |  | > 100 µM (inactive) | > 100 µM (inactive) | > 100 µM (inactive) |  | > 100 µM (inactive) |  |  | > 100 µM (inactive) | > 100 µM (inactive) | > 100 µM (inactive) | > 100 µM (inactive) | > 100 µM (inactive) | > 100 µM (inactive) | > 100 µM (inactive) | 
9 | Cc1c(O)c(OC2OC(CO)C(O)C(O)C2O)cc2c1CC[C@@H]1C2(C)C(=O)C[C@]2(C)[C@@H]([C@@](C)(O)C(O)/C=C/C(C)(C)O)[C@H](O)C[C@@]12C (some centres undefined) | > 100 | > 100 µM (inactive) | > 100 µM (inactive) | > 100 µM (inactive) | > 100 µM (inactive) | > 100 µM (inactive) | > 100 µM (inactive) | > 100 µM (inactive) | > 100 µM (inactive) | > 100 µM (inactive) | > 100 µM (inactive) | > 100 µM (inactive) | > 100 µM (inactive) | > 100 µM (inactive) | > 100 µM (inactive) | > 100 µM (inactive) | > 100 µM (inactive) |  | > 100 µM (inactive)
10 | COc1cc(/C=N\O[Si](C)(C)C(C)(C)C)ccc1O[Si](C)(C)C(C)(C)C | 27.4 | 92.5 µM (inactive) |  |  | 47.3 µM (inactive) |  |  |  | > 100 µM (inactive) |  |  | > 100 µM (inactive) | > 100 µM (inactive) |  |  | > 100 µM (inactive) | 36 µM (inactive) | 56.6 µM (inactive) | 
11 | COC(=O)C(C(=O)C(=O)Nc1nnc(S)[nH]1)c1csc(N)n1 (centres undefined) | > 100 | > 100 µM (inactive) |  |  | > 100 µM (inactive) | > 100 µM (inactive) | > 100 µM (inactive) |  | > 100 µM (inactive) |  |  | > 100 µM (inactive) | > 100 µM (inactive) | > 100 µM (inactive) | > 100 µM (inactive) | > 100 µM (inactive) | > 100 µM (inactive) | > 100 µM (inactive) | 
